Assay results: patent US20250027072A1, “METHODS AND CO[…] TO ENGINEERED CANNABINOID RECEPTORS” (priority 2021, published 2025)
Several values for one entry are separate records, joined by “and”; a condition that tells them apart may be missing. Equal values may be shown once. Read-outs that look alike come from different tables or passages of the source.

How the values were obtained:
[1] = target: T1, human cannabinoid receptor type II (CB2R) (Homo sapiens, UniProt P34972); assay: cell-based; format: cell-based; settings: Ste2 signal sequence CB2R; read-out: EC50, dose response with CB2R
Description: (§1) To efficiently transduce signals from the human machinery to the yeast pathway, the yeast 5 C-terminal residues of the G-alpha gene GPA1 were replaced with the sequence of the Gαi3 human G-alpha variant as previously described (Brown et al. 2000). ZsGreen1 was used to report on the activity of the pathway, integrating it into the genome in place of the pheromone-inducible Fig1 gene (FIG. 14A).
(§2) Yeast colonies were picked and grown overnight to saturation in pH 5.8 SD-His media in a 2.2 mL deep well plate (Axygen) grown in a plate-shaking incubator (30° C., 1000 rpm, 3 mm orbital). In the morning cultures were diluted 1:10 or 1:25 in SD-His media buffered to pH 7.1 with 100 mM MOPSO (unless otherwise specified). Ligands were added to the culture and incubated with shaking for 8 hours. Cells were then washed three times with ice-cold Tris buffer (pH 7) and diluted 1:20 for cytometry. All cytometry was performed on a Sony SA3800 spectral analyzer. Each sample was tested for 10,000 events, and read at a rate of 1,000 events per second. All assays as reported here were filtered only for singlet populations.

[2] = target: T1, human cannabinoid receptor type II (CB2R); assay: cell-based; format: cell-based; set-up: MFα (mating factor alpha) pre-pro leader (N); expressed in transfected cells; host or cells: Saccharomyces cerevisiae BY4741-derived biosensor strain (Gpa1-Gαi3 chimera, ZsGreen reporter); sterol-modified strain ST03 for the screens, pH 5.8; settings: EC50, dose response with CB2R, WT CB2R (no leader)
Description: as §1, §2

[3] = target: T1, human cannabinoid receptor type II (CB2R); assay: cell-based; format: cell-based; set-up: other: MF alpha leader CB2R; "MF-α=mating factor alpha pre-pro"; fused on or other part: yeast mating factor alpha (MFα) pre-pro leader fused at the N-terminus; settings: EC50, dose response with CB2R, MF alpha leader CB2R
Description: as §1, §2

[4] = target: T1, human cannabinoid receptor type II (CB2R); assay: cell-based; format: cell-based; set-up: other: syn-prepro CB2R; "Syn=synthetic pre-pro"; fused on or other part: synthetic yeast pre-pro secretion leader (syn-prepro) fused at the N-terminus; settings: EC50, dose response with CB2R, syn-prepro CB2R
Description: as §1, §2

[5] = target: T2, human Cannabinoid Receptor 1 (CB1R) (Homo sapiens, UniProt P21554); format: cell-based
T2 construct: syn-prepro (synthetic yeast pre-pro secretion leader) (N); expressed in transfected cells; host or cells: Saccharomyces cerevisiae BY4741-derived strain (ste2, sst2, far1 knocked out); Gpa1-Gαi3 chimera

CB1R = target: T3, CB1R (Homo sapiens, UniProt P21554); settings: Banister et al., 2015; read-out: EC50 with CB1R in mouse AtT-20 neuroblastoma cells; cited from earlier work
T3 construct: host or cells: mouse AtT-20 cells

[6] = target: T1, human cannabinoid receptor type II (CB2R); assay: cell-based; format: cell-based; set-up: Normalized Activity at 1 μM, CB2R; other: PINACA compounds, 1 μM; Normalized Activity at 1 μm, CB2R; other: 5-fluoro PB-22 isomers, 1 μm; other: MFα-CB2R, ST03 sterol strain, pH 5.8; activity against CB2R; other: at 10 nM, dose response; preference at CB2R of ADB-BINACA over AB-PINACA; signaling at CB2R in synthetic cannabinoid screen; fused on or other part: yeast mating factor alpha (MFα) pre-pro leader fused at the N-terminus as a trafficking signal
Description: as §1, §2

T1 sequence (P34972 whole entry): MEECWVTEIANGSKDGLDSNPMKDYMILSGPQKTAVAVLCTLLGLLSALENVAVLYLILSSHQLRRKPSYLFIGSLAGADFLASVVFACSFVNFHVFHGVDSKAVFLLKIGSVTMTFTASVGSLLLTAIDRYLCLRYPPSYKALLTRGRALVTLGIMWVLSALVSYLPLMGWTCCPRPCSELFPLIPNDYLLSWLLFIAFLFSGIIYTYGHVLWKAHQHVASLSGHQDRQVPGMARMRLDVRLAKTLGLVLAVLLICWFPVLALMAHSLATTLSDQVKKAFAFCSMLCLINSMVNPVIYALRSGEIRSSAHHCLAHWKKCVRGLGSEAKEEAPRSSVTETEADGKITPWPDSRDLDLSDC
T2 sequence (P21554 90-472): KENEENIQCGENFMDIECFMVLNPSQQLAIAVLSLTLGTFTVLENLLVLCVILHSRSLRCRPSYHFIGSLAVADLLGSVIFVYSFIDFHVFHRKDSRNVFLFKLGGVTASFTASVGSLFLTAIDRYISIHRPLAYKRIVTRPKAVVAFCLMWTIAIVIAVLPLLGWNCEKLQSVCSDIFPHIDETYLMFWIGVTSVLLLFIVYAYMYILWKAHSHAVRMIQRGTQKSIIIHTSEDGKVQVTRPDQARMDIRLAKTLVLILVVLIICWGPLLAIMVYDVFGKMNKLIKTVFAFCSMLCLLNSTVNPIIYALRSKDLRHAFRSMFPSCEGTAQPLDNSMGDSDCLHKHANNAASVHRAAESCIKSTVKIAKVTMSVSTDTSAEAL
T3 sequence (P21554 whole entry): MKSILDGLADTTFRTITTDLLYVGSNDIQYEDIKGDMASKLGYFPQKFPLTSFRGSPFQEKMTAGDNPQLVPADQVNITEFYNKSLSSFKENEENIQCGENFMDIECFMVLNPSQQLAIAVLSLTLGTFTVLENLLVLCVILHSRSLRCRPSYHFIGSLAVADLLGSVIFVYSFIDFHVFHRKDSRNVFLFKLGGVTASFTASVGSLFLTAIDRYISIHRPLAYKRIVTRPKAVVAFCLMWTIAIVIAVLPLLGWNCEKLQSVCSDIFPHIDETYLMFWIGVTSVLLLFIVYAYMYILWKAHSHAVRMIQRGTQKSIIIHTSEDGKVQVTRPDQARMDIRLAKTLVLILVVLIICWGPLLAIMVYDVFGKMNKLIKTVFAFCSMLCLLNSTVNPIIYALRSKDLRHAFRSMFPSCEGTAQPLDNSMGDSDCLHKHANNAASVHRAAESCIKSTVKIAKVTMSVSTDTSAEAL

Compound | EC50 [1] | EC50 [2] | EC50 [3] | EC50 [4] | relative fluorescence of the ACEA positive control at CB1R ([5]; compounds at 10 nM, 100 μM ACEA control) | signaling at CB1R in synthetic cannabinoid screen relative to 100 μM ACEA positive control ([5]; compounds at 1 μM) | EC50 at CB1R, synthetic cannabinoid dose response ([5]; syn-prepro-Δ89-CB1R, wild type ergosterol strain) | EC50 ([5]; syn-prepro-Δ89-CB1R, wild type ergosterol strain, read-out: EC50 at CB1R, synthetic cannabinoid dose response) | EC50 (CB1R) | EC50 ([6]; MFα-CB2R, ST03 sterol strain, pH 5.8, read-out: EC50 at CB2R, dose response) | signaling at CB2R in synthetic cannabinoid screen ([6]; compounds at 1 μM)
CCCCC/C=C\C/C=C\C/C=C\C/C=C\CCCC(=O)OC(CO)CO [2-AG, 2-arachidonoyl glycerol] | 0.15 µM | 0.07 µM | 0.16 µM | 1.54 µM | – | – | – | – | – | – | –
CCCCCn1nc(C(=O)N[C@H](C(N)=O)C(C)C)c2ccccc21 [AB-PINACA] | – | – | – | – | strong signaling | maximal fluorescence | low nanomolar range | 0.0012 µM and 0.00121 µM | 0.0012 µM | 0.107 µM | high activity
